Reference: ChEMBL document CHEMBL1909046, “DrugMatrix in vitro pharmacology data”
Where a SMILES comes first, the peptide text is derived from it. Bridges are numbered along the chain shown (N, C = ends). [ ]: non-standard residue; d: D form. The star is where a group is joined. Ileψ(thiazoline)Cys = CC[C@H](C)[C@H](N)C1=N[C@H](C(=O)*)CS1; dOrn = NCCC[C@@H](N)C(=O)O

Key:
[1] = molecular target: D(3) dopamine receptor (Homo sapiens, UniProt P35462); assay: DRUGMATRIX: Dopamine D3 radioligand binding (ligand: [3H] Spiperone); format: cell membranes, CHO, Membrane; conditions: cho
Chain of D(3) dopamine receptor (P35462 whole entry): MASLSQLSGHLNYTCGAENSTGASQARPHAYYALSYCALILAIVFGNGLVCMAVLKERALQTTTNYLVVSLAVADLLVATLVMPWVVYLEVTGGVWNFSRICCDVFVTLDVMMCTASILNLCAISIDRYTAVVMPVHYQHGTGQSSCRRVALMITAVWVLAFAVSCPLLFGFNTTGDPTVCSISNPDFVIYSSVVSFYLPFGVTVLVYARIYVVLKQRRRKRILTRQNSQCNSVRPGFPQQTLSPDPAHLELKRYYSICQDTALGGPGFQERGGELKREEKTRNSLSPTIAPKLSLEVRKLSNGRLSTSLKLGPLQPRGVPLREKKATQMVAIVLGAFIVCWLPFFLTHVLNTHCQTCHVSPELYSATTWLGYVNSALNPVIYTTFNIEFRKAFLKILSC

[2] = molecular target: Insulin receptor (Rattus norvegicus, UniProt P15127); format: cell membranes, Wistar, Liver, Membrane; further: in other assays of this panel Not Active means under 50% inhibition at 10 µM
Chain of Insulin receptor (P15127 27-759 limits assumed): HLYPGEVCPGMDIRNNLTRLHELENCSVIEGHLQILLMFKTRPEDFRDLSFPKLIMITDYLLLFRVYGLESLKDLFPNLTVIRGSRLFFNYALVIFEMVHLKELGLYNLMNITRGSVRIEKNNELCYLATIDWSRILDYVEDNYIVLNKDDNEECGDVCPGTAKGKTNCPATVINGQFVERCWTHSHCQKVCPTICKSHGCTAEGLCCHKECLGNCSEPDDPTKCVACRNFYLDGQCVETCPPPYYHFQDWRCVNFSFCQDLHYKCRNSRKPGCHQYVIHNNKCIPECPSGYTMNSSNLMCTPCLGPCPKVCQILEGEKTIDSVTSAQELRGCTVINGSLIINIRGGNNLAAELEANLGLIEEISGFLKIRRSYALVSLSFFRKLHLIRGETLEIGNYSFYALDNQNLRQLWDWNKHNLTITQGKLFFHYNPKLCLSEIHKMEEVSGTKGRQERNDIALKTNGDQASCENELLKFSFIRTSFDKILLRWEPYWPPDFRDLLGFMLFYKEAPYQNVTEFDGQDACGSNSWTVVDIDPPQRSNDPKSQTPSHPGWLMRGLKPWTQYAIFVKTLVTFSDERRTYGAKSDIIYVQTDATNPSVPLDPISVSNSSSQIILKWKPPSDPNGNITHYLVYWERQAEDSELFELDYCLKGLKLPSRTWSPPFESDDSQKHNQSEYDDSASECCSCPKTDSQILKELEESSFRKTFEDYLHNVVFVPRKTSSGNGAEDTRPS
Chain of Insulin receptor (P15127 764-1383 limits assumed): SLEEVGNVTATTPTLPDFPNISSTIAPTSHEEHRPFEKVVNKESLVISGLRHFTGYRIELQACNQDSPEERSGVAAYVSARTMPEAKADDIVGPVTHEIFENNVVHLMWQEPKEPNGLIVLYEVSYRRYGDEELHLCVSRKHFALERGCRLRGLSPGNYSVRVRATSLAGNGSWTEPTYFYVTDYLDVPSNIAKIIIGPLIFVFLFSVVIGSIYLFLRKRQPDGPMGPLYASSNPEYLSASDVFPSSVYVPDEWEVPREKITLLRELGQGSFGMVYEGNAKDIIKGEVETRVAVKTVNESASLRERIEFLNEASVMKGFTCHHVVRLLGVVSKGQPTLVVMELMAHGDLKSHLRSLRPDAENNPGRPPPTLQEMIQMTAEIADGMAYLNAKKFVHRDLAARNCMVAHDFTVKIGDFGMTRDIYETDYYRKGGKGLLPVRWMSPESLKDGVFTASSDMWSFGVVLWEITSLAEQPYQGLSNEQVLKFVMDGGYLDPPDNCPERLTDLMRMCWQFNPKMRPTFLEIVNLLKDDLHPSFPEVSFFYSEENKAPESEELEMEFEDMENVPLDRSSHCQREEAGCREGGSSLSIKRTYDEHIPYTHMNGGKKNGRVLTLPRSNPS

[3] = molecular target: Matrix metalloproteinase-9 (Homo sapiens, UniProt P14780); format: cell-based;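 further: inhibition of isolated MMP-9 enzyme activity toward a synthetic peptide substrate, from the DrugMatrix protease screening panel; in other assays of this panel Not Active means under 50% inhibition at 10 µM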
Chain of Matrix metalloproteinase-9 (P14780 whole entry): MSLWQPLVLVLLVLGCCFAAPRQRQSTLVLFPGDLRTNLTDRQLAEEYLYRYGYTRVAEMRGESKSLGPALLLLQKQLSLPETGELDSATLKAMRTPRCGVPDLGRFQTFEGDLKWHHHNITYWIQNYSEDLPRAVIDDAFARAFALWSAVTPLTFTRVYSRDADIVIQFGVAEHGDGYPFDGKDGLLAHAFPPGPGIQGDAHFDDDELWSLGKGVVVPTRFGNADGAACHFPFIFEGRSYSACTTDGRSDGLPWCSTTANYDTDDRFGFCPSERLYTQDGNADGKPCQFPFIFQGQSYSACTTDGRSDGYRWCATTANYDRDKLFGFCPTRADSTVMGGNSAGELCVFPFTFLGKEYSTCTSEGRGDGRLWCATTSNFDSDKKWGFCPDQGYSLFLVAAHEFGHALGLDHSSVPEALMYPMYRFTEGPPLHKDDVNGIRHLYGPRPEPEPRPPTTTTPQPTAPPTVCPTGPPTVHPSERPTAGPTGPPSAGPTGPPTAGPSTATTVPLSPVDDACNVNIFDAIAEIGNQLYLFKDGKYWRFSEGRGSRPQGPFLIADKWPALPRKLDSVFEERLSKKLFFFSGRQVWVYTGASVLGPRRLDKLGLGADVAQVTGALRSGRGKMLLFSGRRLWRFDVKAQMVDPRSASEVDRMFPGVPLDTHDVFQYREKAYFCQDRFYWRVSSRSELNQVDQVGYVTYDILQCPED

[4] = DRUGMATRIX: ATPase, Na+/K+ enzyme inhibition (substrate: ATP); format: tissue-based, Sus scrofa, Heart; conditions: Not Active = under 50% inhibition at 10 µM
[5] = DRUGMATRIX: Potassium Channel [KATP] radioligand binding (ligand: [3H] Glyburide); format: cell membranes, Membrane; conditions: hit-t15; Not Active = under 50% inhibition at 10 µM
[6] = molecular target: Acetylcholinesterase (Homo sapiens, UniProt P22303); assay: DRUGMATRIX: Acetylcholinesterase enzyme inhibition (substrate: acetylthiocholine); format: cell-based, HEK293; conditions: hek293; Not Active = under 50% inhibition at 10 µM
Chain of Acetylcholinesterase (P22303 whole entry): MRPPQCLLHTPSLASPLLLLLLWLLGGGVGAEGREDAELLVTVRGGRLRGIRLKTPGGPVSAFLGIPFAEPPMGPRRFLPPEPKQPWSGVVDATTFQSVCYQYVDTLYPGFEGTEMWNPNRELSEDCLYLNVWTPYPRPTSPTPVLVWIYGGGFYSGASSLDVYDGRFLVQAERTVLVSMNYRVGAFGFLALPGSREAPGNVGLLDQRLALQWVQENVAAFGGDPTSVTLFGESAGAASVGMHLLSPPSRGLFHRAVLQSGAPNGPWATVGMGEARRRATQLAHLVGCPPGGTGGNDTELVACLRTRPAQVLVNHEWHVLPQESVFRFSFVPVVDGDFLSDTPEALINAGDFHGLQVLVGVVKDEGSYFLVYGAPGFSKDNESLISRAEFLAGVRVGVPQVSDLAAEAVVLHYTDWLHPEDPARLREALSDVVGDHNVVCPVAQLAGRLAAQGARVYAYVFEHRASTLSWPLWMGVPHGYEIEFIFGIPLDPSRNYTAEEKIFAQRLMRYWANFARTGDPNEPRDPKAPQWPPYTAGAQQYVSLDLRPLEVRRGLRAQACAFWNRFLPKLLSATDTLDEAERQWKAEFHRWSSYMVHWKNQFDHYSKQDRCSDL

[7] = molecular target: T1, Neuropeptide Y receptor type 2 (Homo sapiens, UniProt P49146); format: cell membranes, Membrane; conditions: kan-ts; further: in other assays of this panel Not Active means under 50% inhibition at 10 µM
T1 sequence (P49146 whole entry): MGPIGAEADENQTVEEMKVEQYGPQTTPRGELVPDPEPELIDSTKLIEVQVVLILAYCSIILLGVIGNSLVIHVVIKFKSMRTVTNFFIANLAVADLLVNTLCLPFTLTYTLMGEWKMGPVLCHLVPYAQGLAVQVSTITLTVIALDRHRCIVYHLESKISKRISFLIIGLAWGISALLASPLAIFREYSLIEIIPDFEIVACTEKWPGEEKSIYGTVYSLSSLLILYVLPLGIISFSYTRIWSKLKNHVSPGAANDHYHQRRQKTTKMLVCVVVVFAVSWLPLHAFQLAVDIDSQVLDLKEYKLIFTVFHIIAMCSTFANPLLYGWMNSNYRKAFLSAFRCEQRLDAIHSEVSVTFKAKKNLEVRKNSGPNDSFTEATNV

[8] = molecular target: Cannabinoid receptor 1 (Homo sapiens, UniProt P21554); format: cell membranes, Membrane; conditions: chem-1; further: in other assays of this panel Not Active means under 50% inhibition at 10 µM
Chain of Cannabinoid receptor 1 (P21554 whole entry): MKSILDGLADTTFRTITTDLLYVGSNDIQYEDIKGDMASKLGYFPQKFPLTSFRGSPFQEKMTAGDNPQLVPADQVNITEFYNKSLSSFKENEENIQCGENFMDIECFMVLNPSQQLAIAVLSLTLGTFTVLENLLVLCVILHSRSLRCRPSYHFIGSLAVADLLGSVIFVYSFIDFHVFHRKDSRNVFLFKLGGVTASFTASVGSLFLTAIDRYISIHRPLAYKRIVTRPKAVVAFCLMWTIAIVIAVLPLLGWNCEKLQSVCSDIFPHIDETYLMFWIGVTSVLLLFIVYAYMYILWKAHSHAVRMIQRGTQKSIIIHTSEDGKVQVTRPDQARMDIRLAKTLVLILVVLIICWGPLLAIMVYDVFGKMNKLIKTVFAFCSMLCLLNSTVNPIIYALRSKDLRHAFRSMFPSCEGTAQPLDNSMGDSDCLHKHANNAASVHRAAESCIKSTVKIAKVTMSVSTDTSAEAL

[9] = DRUGMATRIX: beta-Lactamase enzyme inhibition (substrate: Nitrocefin); parameters: species or system Bacillus cereus; conditions: Not Active = under 50% inhibition at 10 µM
[10] = molecular target: Substance-P receptor (Homo sapiens, UniProt P25103); format: cell membranes, CHO, Membrane; conditions: cho; further: in other assays of this panel Not Active means under 50% inhibition at 10 µM
Chain of Substance-P receptor (P25103 whole entry): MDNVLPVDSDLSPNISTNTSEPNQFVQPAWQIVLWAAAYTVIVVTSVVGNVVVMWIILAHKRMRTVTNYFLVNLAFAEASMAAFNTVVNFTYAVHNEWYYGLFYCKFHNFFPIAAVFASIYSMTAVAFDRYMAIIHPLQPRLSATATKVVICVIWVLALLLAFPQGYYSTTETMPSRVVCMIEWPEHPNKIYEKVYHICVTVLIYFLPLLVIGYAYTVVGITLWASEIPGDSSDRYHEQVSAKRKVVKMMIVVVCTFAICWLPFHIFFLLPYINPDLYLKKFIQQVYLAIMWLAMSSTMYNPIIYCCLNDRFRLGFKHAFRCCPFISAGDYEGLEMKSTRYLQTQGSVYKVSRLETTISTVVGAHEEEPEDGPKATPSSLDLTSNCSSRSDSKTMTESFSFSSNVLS

[11] = molecular target: Melanocortin receptor 4 (Homo sapiens, UniProt P32245); format: cell membranes, Membrane; conditions: hek293; further: in other assays of this panel Not Active means under 50% inhibition at 10 µM
Chain of Melanocortin receptor 4 (P32245 whole entry): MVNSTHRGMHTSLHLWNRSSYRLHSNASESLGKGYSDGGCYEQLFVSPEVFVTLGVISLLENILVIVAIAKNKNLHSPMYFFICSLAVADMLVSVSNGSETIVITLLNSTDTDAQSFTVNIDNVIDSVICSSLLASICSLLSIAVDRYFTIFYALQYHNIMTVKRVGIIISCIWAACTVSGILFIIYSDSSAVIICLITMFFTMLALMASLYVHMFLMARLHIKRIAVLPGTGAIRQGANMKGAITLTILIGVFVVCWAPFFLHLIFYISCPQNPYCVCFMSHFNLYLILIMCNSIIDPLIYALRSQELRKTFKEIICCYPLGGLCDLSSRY

[12] = DRUGMATRIX: Calcium Channel Type L, Dihydropyridine radioligand binding (ligand: [3H] Nitrendipine); format: cell membranes, Rattus norvegicus, Wistar, Cerebral cortex, Membrane; conditions: Not Active = under 50% inhibition at 10 µM
[13] = molecular target: T2, Adenosine receptor A3 (Homo sapiens, UniProt P0DMS8); format: cell membranes, CHO-K1, Membrane; conditions: cho-k1
T2 sequence (P0DMS8 whole entry): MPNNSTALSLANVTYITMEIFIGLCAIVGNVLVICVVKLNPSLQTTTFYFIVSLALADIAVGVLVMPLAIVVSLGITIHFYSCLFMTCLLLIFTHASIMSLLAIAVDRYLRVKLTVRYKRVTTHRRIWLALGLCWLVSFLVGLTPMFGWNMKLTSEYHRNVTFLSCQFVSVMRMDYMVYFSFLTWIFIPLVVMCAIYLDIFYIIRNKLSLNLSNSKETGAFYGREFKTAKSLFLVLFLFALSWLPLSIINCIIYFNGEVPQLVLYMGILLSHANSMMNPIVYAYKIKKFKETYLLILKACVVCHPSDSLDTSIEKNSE

[14] = DRUGMATRIX: Phosphodiesterase PDE4 enzyme inhibition (substrate: [3H]cAMP + cAMP); conditions: u-937; Not Active = under 50% inhibition at 10 µM
[15] = molecular target: Cytochrome P450 3A4 (Homo sapiens, UniProt P08684); conditions: bti-tn-5b1-4; further: in other assays of this panel Not Active means under 50% inhibition at 10 µM
Chain of Cytochrome P450 3A4 (P08684 whole entry): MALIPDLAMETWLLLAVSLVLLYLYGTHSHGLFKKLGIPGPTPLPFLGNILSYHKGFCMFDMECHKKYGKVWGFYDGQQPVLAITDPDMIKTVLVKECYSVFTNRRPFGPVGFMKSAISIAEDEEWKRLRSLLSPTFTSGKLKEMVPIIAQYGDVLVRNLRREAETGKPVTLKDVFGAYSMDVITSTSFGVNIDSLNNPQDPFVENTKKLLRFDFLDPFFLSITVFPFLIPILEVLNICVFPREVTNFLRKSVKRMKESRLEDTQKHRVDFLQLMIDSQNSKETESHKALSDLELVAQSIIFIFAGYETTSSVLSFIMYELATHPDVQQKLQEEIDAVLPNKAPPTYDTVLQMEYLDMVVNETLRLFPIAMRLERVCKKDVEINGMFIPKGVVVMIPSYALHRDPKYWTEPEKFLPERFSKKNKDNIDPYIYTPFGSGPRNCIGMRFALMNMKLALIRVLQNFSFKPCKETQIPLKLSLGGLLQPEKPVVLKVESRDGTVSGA

N=C(N)NCCCCNC(=N)N.O=S(=O)(O)O [ARCAINE SULFATE]
Not Active: IC50 [1] | IC50 [2] | IC50 [3] | IC50 [4] | Ki [4] | IC50 [5] | Ki [5] | IC50 [6] | IC50 [7] | IC50 [8] | IC50 [9] | Ki [9] | IC50 [10] | IC50 [11] | IC50 [12] | Ki [12] | IC50 [13] | IC50 [14] | Ki [14] | IC50 [15] | Ki [15]

C=C1[C@@H]2CCC3[C@@](CC[C@@H]4[C@H](C(=O)O)C[C@@H](O[C@@H]5O[C@H](CO)[C@@H](OS(=O)(=O)[O-])[C@H](OS(=O)(=O)[O-])[C@H]5OC(=O)CC(C)C)C[C@@]34C)(C2)[C@@H]1O.[K+].[K+] (some centres not stated) [ATRACTYLOSIDE]
Not Active: IC50 [1] | IC50 [2] | IC50 [3] | IC50 [4] | Ki [4] | IC50 [5] | Ki [5] | IC50 [6] | IC50 [7] | IC50 [8] | IC50 [9] | Ki [9] | IC50 [10] | IC50 [11] | IC50 [12] | Ki [12] | IC50 [13] | IC50 [14] | Ki [14] | IC50 [15] | Ki [15]

Cn1cnc([N+](=O)[O-])c1Sc1ncnc2nc[nH]c12 [AZATHIOPRINE]
Not Active: IC50 [1] | IC50 [2] | IC50 [3] | IC50 [4] | Ki [4] | IC50 [5] | Ki [5] | IC50 [6] | IC50 [7] | IC50 [8] | IC50 [9] | Ki [9] | IC50 [10] | IC50 [11] | IC50 [12] | Ki [12] | IC50 [13] | IC50 [14] | Ki [14] | IC50 [15] | Ki [15]

CC1(C)S[C@@H]2[C@H](NC(=O)[C@H](NC(=O)N3CCNC3=O)c3ccccc3)C(=O)N2[C@H]1C(=O)O [AZLOCILLIN]
Not Active: IC50 [1] | IC50 [2] | IC50 [3] | IC50 [4] | Ki [4] | IC50 [5] | Ki [5] | IC50 [6] | IC50 [7] | IC50 [8] | IC50 [9] | Ki [9] | IC50 [10] | IC50 [11] | IC50 [12] | Ki [12] | IC50 [13] | IC50 [14] | Ki [14] | IC50 [15] | Ki [15]

CC[C@H](C)[C@H](N)C1=N[C@H](C(=O)N[C@@H](CC(C)C)C(=O)N[C@H](CCC(=O)O)C(=O)N[C@H](C(=O)N[C@H]2CCCCNC(=O)[C@H](CC(N)=O)NC(=O)[C@@H](CC(=O)O)NC(=O)[C@H](Cc3cnc[nH]3)NC(=O)[C@@H](Cc3ccccc3)NC(=O)[C@H]([C@@H](C)CC)NC(=O)[C@@H](CCCN)NC2=O)[C@@H](C)CC)CS1 [BACITRACIN] ({Ileψ(thiazoline)Cys}-L[dE]IK[dOrn]I[dF]H[dD]N; lactam 4-C)
Not Active: IC50 [1] | IC50 [2] | IC50 [3] | IC50 [4] | Ki [4] | IC50 [5] | Ki [5] | IC50 [6] | IC50 [7] | IC50 [8] | IC50 [9] | Ki [9] | IC50 [10] | IC50 [11] | IC50 [12] | Ki [12] | IC50 [13] | IC50 [14] | Ki [14] | IC50 [15] | Ki [15]

CCOC(=O)c1ccc(N)cc1 [BENZOCAINE]
Not Active: IC50 [1] | IC50 [2] | IC50 [3] | IC50 [4] | Ki [4] | IC50 [5] | Ki [5] | IC50 [6] | IC50 [7] | IC50 [8] | IC50 [9] | Ki [9] | IC50 [10] | IC50 [11] | IC50 [12] | Ki [12] | IC50 [13] | IC50 [14] | Ki [14] | IC50 [15] | Ki [15]

OCc1ccccc1 [BENZYL ALCOHOL]
Not Active: IC50 [1] | IC50 [2] | IC50 [3] | IC50 [4] | Ki [4] | IC50 [5] | Ki [5] | IC50 [6] | IC50 [7] | IC50 [8] | IC50 [9] | Ki [9] | IC50 [10] | IC50 [11] | IC50 [12] | Ki [12] | IC50 [13] | IC50 [14] | Ki [14] | IC50 [15] | Ki [15]
